Values joined by “and” are separate entries in the source; they are usually repeats but may differ in a detail not shown here. Identical values can stand only once. After the bases stand the sugars from the 5' end (letter, count) and the backbone: PS all phosphorothioate, else s phosphorothioate and o phosphodiester by linkage. Methylation of C is not given here. e = 2'-O-(2-methoxyethyl) (MOE); l = locked nucleic acid (LNA); k = constrained ethyl (cEt); d = 2'-deoxy (DNA)
Legend:
SNHG14 = settings: ASO
APOL1 = settings: ASO
[1] = Mouse Primary Neuronal Cell, 0.005 µM

Sequence	target mRNA inhibition (SNHG14; Human Neuronal Cell, 7.5 µM)	target mRNA inhibition (SNHG14; Human Neuronal Cell, 0.2 µM)	target mRNA inhibition (SNHG14; Human Neuronal Cell, 1 µM)	further results
AAAATCTCAACTACCATTT (sugars l6 d6 l2 d2 l3, PS)	23%	–	–	–
AAAATCTCAACTACCATTTT (sugars lldldlddddddddlldlll, PS)	24%	–	–	–
AAAATTATTTATACACCATC (sugars ldldllddddddddlldlll, PS)	59%	–	–	–
AAAATTATTTATACACCATC (sugars lldllldddddddlddllll, PS)	52%	–	–	–
AAAATTATTTATACACCATC (sugars lllldlddddddddldllll, PS)	59%	–	–	–
AAAGATCATTCTCAACAA (sugars l1 d1 l1 d9 l6, PS)	61%	–	–	–
AAATCTCAACTACCATTTTT (sugars ldldddldddddddllldll, PS)	14%	–	–	–
AAATCTCAACTACCATTTTT (sugars lldddllddddddlddllll, PS)	29%	–	–	–
AAATTATTTATACACCATCA (sugars l4 d10 l1 d2 l3, PS)	66%	–	–	–
AAATTATTTATACACCATCA (sugars llddldldddddddddllll, PS)	67%	–	–	–
AAATTATTTATACACCATCA (sugars lldlldldddddddldddll, PS)	71%	–	–	–
AAATTATTTATACACCATCA (sugars lllddllddddddlldddll, PS)	64%	–	–	–
AAATTGTCTACCTTCCT (sugars l2 d12 l3, PS)	–	29%	19%	–
AACCAATTATACTTACA (sugars l4 d11 l2, PS)	–	40%	51%	–
AACTCTCACTGTAACTT (sugars l3 d11 l3, PS)	–	32%	42%	–
AACTGTTTATACCCTTT (sugars l4 d11 l2, PS)	–	51%	55%	–
AATGCTCACACTAATT (sugars l4 d10 l2, PS)	–	37%	54%	–
AATTATTTATACACCAT (sugars l2 d11 l4, PS)	–	2%	32%	–
AATTATTTATACACCATCAT (sugars llddldddddddddldllll, PS)	70%	–	–	–
AATTATTTATACACCATCAT (sugars llldllddddddddlddlll, PS)	64%	–	–	–
ACATCTCATACTTGCT (sugars l2 d10 l4, PS)	–	-10%	-5%	target mRNA inhibition (SNHG14; Human Neuronal Cell, 5 µM): 8%; target mRNA inhibition (SNHG14; [1]): 96%
ACATCTCATACTTGCT (sugars l2 d12 l2, PS)	–	-13%	-7%	target mRNA inhibition (SNHG14; Human Neuronal Cell, 5 µM): 4%; target mRNA inhibition (SNHG14; [1]): 93.9%
ACATGTCCCTTTATAT (sugars l2 d12 l2, PS)	–	-9%	-2%	target mRNA inhibition (SNHG14; Human Neuronal Cell, 5 µM): 15%
TGTGATGTGGGACTTG (sugars k4 d9 k3, PS)	–	–	–	target mRNA inhibition (APOL1; A431, 0.0625 µM): 32%; target mRNA inhibition (APOL1; A431, 0.25 µM): 70%; target mRNA inhibition (APOL1; A431, 1 µM): 84%
TGTTATATTTGATCCT (sugars k3 d4 k3 e1 d5, PS)	–	–	–	target mRNA inhibition (APOL1; A431, 2 µM): 89%
TGTTATATTTGATCCT (sugars kdddddkekekddddd, PS)	–	–	–	target mRNA inhibition (APOL1; A431, 2 µM): 79%
TGTTATATTTGATCCT (sugars kkddddkekekddddd, PS)	–	–	–	target mRNA inhibition (APOL1; A431, 2 µM): 81%
TGTTATATTTGATCCT (sugars kkkddddkekekdddd, PS)	–	–	–	target mRNA inhibition (APOL1; A431, 2 µM): 59%
TGTTATCCTCAAGCTC (sugars k4 d9 k3, PS)	–	–	–	target mRNA inhibition (APOL1; A431, 0.0625 µM): 37% and 17%
TGTTCTAACTCTTGGG (sugars k2 d4 e3 k2 d5, PS)	–	–	–	target mRNA inhibition (APOL1; A431, 0.0156 µM): 24%; target mRNA inhibition (APOL1; A431, 0.0625 µM): 61%; target mRNA inhibition (APOL1; A431, 0.25 µM): 84%; target mRNA inhibition (APOL1; A431, 1 µM): 93%; target mRNA inhibition (APOL1; A431, 2 µM): 97%

Reference: the OligoGym collection
